{"source": "patent US20250011798A1", "about": "“[…] PRODUCTION” (ModernaTX, Inc., priority 2021, published 2025)", "key": {"[1]": {"test_system": "E. coli strains tolC::K3_amber (K3) and tolC::H342_amber (H342)", "experiment": "Growth of transformed tolC::amber E. coli strains over 24 hours in media containing kanamycin or deoxycholate", "assay_type": "cell-based", "details": "K3 and H342 strains with control luciferase plasmid, TBAF++ media containing deoxycholate (DOC 150), 37° C., FIGS. 3C-3D", "description": "It was evaluated whether plasmid-borne expression of a mutant tRNA with an anticodon that is complementary to the tolC amber mutation would allow for expression of full-length TolC protein, and therefore allow the strain to grow in the presence of an otherwise lethal concentration of nalidixic acid (FIG. 2). In this case, a histidine tRNA, hisR, was modified with an anticodon loop that is complementary to the tolC amber STOP codon, UAG on RNA, which is encoded by TAG on DNA. Mutant E. coli strains were generated by introducing either a tolC::K3_amber (referred to as “K3”) or tolC::H342_amber (referred to as “H342”) amber mutation into the genome (FIG. 3A). Introduction of a STOP codon at an early codon of the open reading frame prevents the translation of non-functional TolC peptides with intact leader sequences, which would otherwise be translocated across the inner cell membrane into the periplasmic space or outer membrane. Each strain also contained codon-optimized tolC coding sequences. Both strains were transformed with a plasmid encoding either i) an amber suppressor tRNA that carries histidine (hisR), or ii) luciferase, as a control plasmid. Both plasmids carried a kanamycin-resistance marker to allow for plasmid maintenance during growth. […]"}, "[2]": {"test_system": "tolC mutant strain (tolC::amber, Strain 4)", "experiment": "Toxin sensitivity of the tolC::amber mutant strain", "assay_type": "cell-based, E. coli", "details": "low concentrations; irrespective of the growth media", "description": "The TAG amber mutation was introduced into the tolC ORF a plasmid DNA production strain, Strain 4 (FIG. 2). TolC is the major outer membrane efflux pump component of E. coli. It is not an essential gene, but it is necessary for the efflux of many toxins, and a tolC knockout is lethal at elevated levels. The tolC mutant strain generated by the tolC::amber mutation was therefore hypersensitive to many toxins, such as low concentrations of nalidixic acid, irrespective of the growth media. While a tolC mutant has hypersensitivity to toxins, it can be cultured normally in rich media such as LB or Terrific Broth, which allows for the generation of competent cells that may be used for DNA synthesis in production."}}}
{"molecule": "deoxycholate [DOC 150]", "values": [{"measurement": "Effect on growth of strains not expressing the HisR tRNA", "setting": "[1]", "value": "lethal"}]}
{"molecule": "CCn1cc(C(=O)O)c(=O)c2ccc(C)nc21", "note": "[nalidixic acid]", "values": [{"measurement": "Sensitivity of the tolC mutant strain to the toxin", "setting": "[2]", "value": "hypersensitive"}]}
